Measured values from ChEMBL document CHEMBL1201862, “PubChem BioAssay data set” (2004).
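Exposure lasted 48 hours, with cells grown in 96-well plates and compounds tested at five concentrations. GI50: concentration for 50% inhibition of growth.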 Active and inactive are the calls of the source. No stated cut-off is given here; in the data, active = GI50 up to about 1.1 µM and inactive = higher.

What was measured:
Test in all cases: NCI tumour cell line growth inhibition, 48 h
[1] = tested on: SK-MEL-28
[2] = tested on: SW-620
[3] = tested on: LOX IMVI
[4] = tested on: SN12C
[5] = tested on: EKVX
[6] = tested on: OVCAR-8
[7] = tested on: RXF 393
[8] = tested on: OVCAR-3
[9] = tested on: DU-145
[10] = tested on: NCI-H460
[11] = tested on: HCT-116
[12] = tested on: CAKI-1
[13] = tested on: HL-60
[14] = tested on: NCI-H522
[15] = tested on: MDA-MB-435
[16] = tested on: HOP-92
[17] = tested on: T47D
[18] = tested on: SNB-19
[19] = tested on: MOLT-4
[20] = tested on: MDA-N
[21] = tested on: OVCAR-5
[22] = tested on: HT-29
[23] = tested on: NCI-H226
[24] = tested on: SK-MEL-2
[25] = tested on: TK-10
[26] = tested on: M14
[27] = tested on: SF-295
[28] = tested on: MDA-MB-231
[29] = tested on: BT-549
[30] = tested on: NCI/ADR-RES
[31] = tested on: MCF7
[32] = tested on: NCI-H23
[33] = tested on: UACC-62
[34] = tested on: KM12
[35] = tested on: Hs-578T
[36] = tested on: HOP-62
[37] = tested on: SK-MEL-5
[38] = tested on: UACC-257
[39] = tested on: K562
[40] = tested on: 786-0
[41] = tested on: IGROV-1
[42] = tested on: Malme-3M
[43] = tested on: U-251
[44] = tested on: PC-3
[45] = tested on: HCT-15
[46] = tested on: A549
[47] = tested on: OVCAR-4
[48] = tested on: UO-31
[49] = tested on: COLO 205
[50] = tested on: RPMI-8226
[51] = tested on: SR
[52] = tested on: SK-OV-3
[53] = tested on: SNB-75
[54] = tested on: A498
[55] = tested on: SF-539
[56] = tested on: SF-268
[57] = tested on: CCRF-CEM
[58] = tested on: ACHN

C/C(=N\n1c(Cc2ccccc2)n[nH]c1=O)c1ccc([N+](=O)[O-])cc1
GI50 [1]: > 100 µM (inactive)
GI50 [2]: > 100 µM (inactive)
GI50 [3]: > 100 µM (inactive)
GI50 [4]: > 100 µM (inactive)
GI50 [5]: 74.5 µM (inactive)
GI50 [6]: 69.7 µM (inactive)
GI50 [7]: 16.6 µM (inactive)
GI50 [8]: > 100 µM (inactive)
GI50 [9]: > 100 µM (inactive)
GI50 [10]: > 100 µM (inactive)
GI50 [11]: > 100 µM (inactive)
GI50 [12]: 78.5 µM (inactive)
GI50 [13]: > 100 µM (inactive)
GI50 [14]: > 100 µM (inactive)
GI50 [15]: > 100 µM (inactive)
GI50 [16]: 25.6 µM (inactive)
GI50 [17]: 94 µM (inactive)
GI50 [18]: > 100 µM (inactive)
GI50 [19]: 52.8 µM (inactive)
GI50 [20]: > 100 µM (inactive)
GI50 [21]: > 100 µM (inactive)
GI50 [22]: > 100 µM (inactive)
GI50 [23]: > 100 µM (inactive)
GI50 [24]: > 100 µM (inactive)
GI50 [25]: > 100 µM (inactive)
GI50 [26]: > 100 µM (inactive)
GI50 [27]: 91.8 µM (inactive)
GI50 [28]: > 100 µM (inactive)
GI50 [29]: > 100 µM (inactive)
GI50 [30]: > 100 µM (inactive)
GI50 [31]: 21 µM (inactive)
GI50 [32]: > 100 µM (inactive)
GI50 [33]: > 100 µM (inactive)
GI50 [34]: > 100 µM (inactive)
GI50 [35]: 64.4 µM (inactive)
GI50 [36]: 49.2 µM (inactive)
GI50 [37]: > 100 µM (inactive)
GI50 [38]: > 100 µM (inactive)
GI50 [39]: > 100 µM (inactive)
GI50 [40]: > 100 µM (inactive)
GI50 [41]: > 100 µM (inactive)
GI50 [42]: > 100 µM (inactive)
GI50 [43]: > 100 µM (inactive)
GI50 [44]: > 100 µM (inactive)
GI50 [45]: > 100 µM
GI50 [46]: > 100 µM (inactive)
GI50 [47]: > 100 µM (inactive)
GI50 [48]: > 100 µM (inactive)
GI50 [49]: > 100 µM (inactive)
GI50 [50]: 50.4 µM (inactive)

COC(=O)/C(C#N)=C(\N)c1c(C)c2ccccc2oc1=N
GI50 [1]: > 100 µM (inactive)
GI50 [2]: > 100 µM (inactive)
GI50 [3]: > 100 µM (inactive)
GI50 [4]: > 100 µM (inactive)
GI50 [5]: > 100 µM (inactive)
GI50 [7]: > 100 µM (inactive)
GI50 [8]: > 100 µM (inactive)
GI50 [9]: > 100 µM (inactive)
GI50 [10]: > 100 µM (inactive)
GI50 [11]: > 100 µM (inactive)
GI50 [12]: > 10 µM (inactive)
GI50 [51]: > 100 µM (inactive)
GI50 [13]: > 100 µM (inactive)
GI50 [14]: > 100 µM (inactive)
GI50 [52]: > 100 µM (inactive)
GI50 [15]: > 100 µM (inactive)
GI50 [16]: > 100 µM (inactive)
GI50 [17]: > 100 µM (inactive)
GI50 [18]: > 100 µM (inactive)
GI50 [19]: > 100 µM (inactive)
GI50 [53]: > 100 µM (inactive)
GI50 [20]: > 100 µM (inactive)
GI50 [21]: > 100 µM (inactive)
GI50 [24]: > 100 µM (inactive)
GI50 [25]: > 100 µM (inactive)
GI50 [27]: > 100 µM (inactive)
GI50 [28]: 86.7 µM (inactive)
GI50 [29]: 64.6 µM (inactive)
GI50 [31]: > 100 µM (inactive)
GI50 [54]: > 100 µM (inactive)
GI50 [33]: > 100 µM (inactive)
GI50 [34]: > 100 µM (inactive)
GI50 [35]: > 100 µM (inactive)
GI50 [36]: > 100 µM (inactive)
GI50 [37]: > 100 µM (inactive)
GI50 [38]: > 100 µM (inactive)
GI50 [39]: > 100 µM (inactive)
GI50 [40]: > 100 µM (inactive)
GI50 [41]: > 100 µM (inactive)
GI50 [43]: > 100 µM (inactive)
GI50 [44]: > 100 µM (inactive)
GI50 [45]: > 100 µM
GI50 [55]: > 100 µM (inactive)
GI50 [46]: > 100 µM (inactive)
GI50 [47]: > 100 µM (inactive)
GI50 [49]: > 100 µM (inactive)
GI50 [50]: > 100 µM (inactive)

O=S(=O)(O)c1ccc2c(/N=N/c3ccccc3Cl)c(O)ccc2c1
GI50 [1]: > 100 µM (inactive)
GI50 [2]: > 100 µM (inactive)
GI50 [3]: > 100 µM (inactive)
GI50 [4]: > 100 µM (inactive)
GI50 [5]: > 100 µM (inactive)
GI50 [6]: > 100 µM (inactive)
GI50 [7]: > 100 µM (inactive)
GI50 [8]: > 100 µM (inactive)
GI50 [9]: > 100 µM (inactive)
GI50 [11]: > 100 µM (inactive)
GI50 [12]: > 100 µM (inactive)
GI50 [56]: > 100 µM (inactive)
GI50 [51]: > 100 µM (inactive)
GI50 [14]: > 100 µM (inactive)
GI50 [52]: > 100 µM (inactive)
GI50 [15]: > 100 µM (inactive)
GI50 [16]: > 100 µM (inactive)
GI50 [17]: > 100 µM (inactive)
GI50 [18]: > 100 µM (inactive)
GI50 [19]: > 100 µM (inactive)
GI50 [53]: > 100 µM (inactive)
GI50 [20]: > 100 µM (inactive)
GI50 [21]: > 100 µM (inactive)
GI50 [22]: > 100 µM (inactive)
GI50 [24]: > 100 µM (inactive)
GI50 [25]: > 100 µM (inactive)
GI50 [26]: > 100 µM (inactive)
GI50 [27]: > 100 µM (inactive)
GI50 [28]: > 100 µM (inactive)
GI50 [29]: > 100 µM (inactive)
GI50 [30]: > 100 µM (inactive)
GI50 [32]: > 100 µM (inactive)
GI50 [54]: > 100 µM (inactive)
GI50 [33]: > 100 µM (inactive)
GI50 [34]: > 100 µM (inactive)
GI50 [35]: > 100 µM (inactive)
GI50 [36]: > 100 µM (inactive)
GI50 [37]: > 100 µM (inactive)
GI50 [38]: > 100 µM (inactive)
GI50 [39]: > 100 µM (inactive)
GI50 [57]: > 100 µM (inactive)
GI50 [58]: > 100 µM (inactive)
GI50 [40]: > 100 µM (inactive)
GI50 [41]: > 100 µM (inactive)
GI50 [42]: > 100 µM (inactive)
GI50 [43]: > 100 µM (inactive)
GI50 [44]: > 100 µM (inactive)
GI50 [45]: > 100 µM
GI50 [46]: > 100 µM (inactive)
GI50 [47]: > 100 µM (inactive)
GI50 [48]: > 100 µM (inactive)
GI50 [49]: > 100 µM (inactive)
GI50 [50]: > 100 µM (inactive)
